This note sets out measurements from patent publication US20220079894A1, “STABLE PHARMACEUTICAL COMPOSITIONS” (priority 2020, published 2022).

This data set is described as follows: NDMA content of Metformin Extended Release Tablets by LC-MS. In kind it is physicochemical. As to conditions: active substance of lot XP9004. As for the experimental part: Of particular concern is the level of NDMA in a class of anti-diabetic drugs including metformin hydrochloride tablets. Since these drugs are administered over a long period of time to patients, the amount of NDMA impurity in such products is of particular concern. It has been established that the 96 ng is the Acceptable Daily Intake Limit (ADI) for N-Nitrosodimethylamine (NDMA) in Metformin Hydrochloride tablets. The levels of NDMA in metformin hydrochloride tablets can be determined by analytical methods like Liquid Chromatography-Mass Spectrometry. Other drugs that can have similar issues are anti-diabetic drugs, a drug to treat Gastroesophageal Reflux Diseases (GERD) or an Angiotensis II receptor antagonist drug (ARBs).
This meant that the potential daily exposure of NDMA in the product was 160 ng/day

Molecules are shown by their SMILES. Where a name gives a salt, the structure may show the parent alone.

Consider `CN(C)C(=N)N=C(N)N` [active substance, Metformin Hydrochloride], for which the “NDMA in the active substance used in the lot” value is “no detectable NDMA”.
